Here are results for 32 molecules from US8846928B2 (Portola Pharmaceuticals, Inc., priority 2010, dated 2014).

The experiment has as its target T1, full length active recombinant SYK enzyme (Homo sapiens, UniProt P43405).
T1 construct: full length active recombinant SYK enzyme (Millipore, Calif.); purchased Millipore
Nature of the experiment: Inhibition of Syk tyrosine phosphorylation activity (LANCE TR-FRET kinase assay). The experiment is classed as biochemical. On the procedure: Inhibition of Syk Tyrosine Phosphorylation Activity
Potency of candidate molecules for inhibiting Syk tyrosine phosphorylation activity is assessed by measuring the ability of a test compound to inhibit Syk-mediated tyrosine phosphorylation of a Syk-specific substrate.
SYK tyrosine phosphorylation activity is measured using the LANCE™ Technology developed by Perkin Elmer Life and Analytical Sciences (Boston, Mass.). LANCE™ refers to homogeneous time resolved fluorometry applications using techniques such as time-resolved fluorescence resonance energy transfer assay (TR-FRET) (see generally for procedures in Perkin Elmer Application Note—How to Optimize a Tyrosine Kinase Assay Using Time Resolved Fluorescence-Based LANCE Detection, wwww.perkinelmer.com/lifesciences). The assay principle involves detection of a phosphorylated substrate using energy transfer from a phosphospecific europium-labeled antibody to streptavidin-allophycocyanin as an acceptor.
To test the ability of candidate molecules to inhibit SYK tyrosine phosphorylation activity, molecules are reconstituted in 30% DMSO and serially diluted 1:3 with the final dilution containing DMSO in the absence of the candidate molecule. The final DMSO concentration in the assay is 3%. Kinase assays are performed as a two part reaction. […] The second reaction involves termination of the kinase reaction and the simultaneous addition of the detection reagents—europium-labeled anti-phosphotyrosine reagent (Eu-W1024-PY100, Perkin Elmer, Boston, Mass.) and Streptavidin-Allophycocyanin detection reagent (SA-APC, Prozyme, Calif.). The kinase reaction is performed in a black U-bottom 96-well microtitre plate. The final reaction volume is 50 μL and contains a final concentration of 1 nM active SYK enzyme, 550 nM SYK-substrate, and 100 μM ATP diluted in a buffer containing 50 mM Tris pH 7.5, 5 mM MgCl2, and 1 mM DTT. The reaction is allowed to proceed for 1 hour at room temperature. The quench buffer contains 100 mM Tris pH 7.5, 300 mM NaCl2, 20 mM EDTA, 0.02% Brij35, and 0.5% BSA. The detection reagents are added to the reaction mixture at the following dilutions-1:500 for Eu-W1024-PY100 and 1:250 for SA-APC. The kinase reaction is terminated by the addition of 50 μL quench buffer containing the detection reagents. The detection is allowed to proceed for 1 hr at room temperature. Detection of the phosphorylated substrate in the absence and presence of inhibitors is measured in the TR-FRET instrument, Analyst HT (Molecular Probes, Sunnyvale, Calif.) and the condition for measurements are set up using CriterionHost Release 2.0 (Molecular Probes, Sunnyvale, Calif.). The settings used are a follows: excitation 360 nm, emission 665-7.5 nm, beam splitter 350 nm 50/50, flash 100 pulses, delay 60 us, integration 400 us, z-height 2 mm. […] IC50s were derived by non-linear regression analysis. […]
For the molecule `NC(=O)c1ccc(N[C@@H]2CCCC[C@@H]2N)nc1Nc1ccc(-n2cccn2)cc1` (relative stereo) [Example 140, 6-(cis-2-aminocyclohexylamino)-2-(4-(1H-pyrazol-1-yl)phenylamino)nicotinamide], the IC50 was in the range of 10 to 100 nM. The result for `NC(=O)c1ccc(N[C@@H]2CCCC[C@@H]2N)nc1Nc1ccc2[nH]ncc2c1` (relative stereo) [Example 141, 6-(cis-2-aminocyclohexylamino)-2-(1H-indazol-5-ylamino)nicotinamide] reads 1 to 10 nM; that for `Cc1cccc(Nc2cc(N[C@@H]3CCCC[C@@H]3N)ncc2C(N)=O)c1` (relative stereo) [Example 142, 6-(cis-2-aminocyclohexylamino)-4-(3-toluidino)nicotinamide], > 1000 nM.

`Cc1cccc(Nc2cc(N[C@@H]3CCCC[C@@H]3N)ccc2C(N)=O)c1` [Example 1, 4-((1R,2S)-2-aminocyclohexylamino)-2-(m-tolylamino)benzamide]: the IC50 is > 1000 nM. The result for `Cn1ccc2c(Nc3cc(N[C@@H]4CCCC[C@@H]4N)ccc3C(N)=O)cccc21` [Example 2, 4-((1R,2S)-2-aminocyclohexylamino)-2-(1-methyl-1H-indol-4-ylamino)benzamide] reads 100 to 1000 nM. With `NC(=O)c1ccc(N[C@@H]2CCCC[C@@H]2N)cc1Nc1ccc(F)cc1` [Example 3, 4-((1R,2S)-2-aminocyclohexylamino)-2-(4-fluorophenylamino)benzamide] the figure was > 1000 nM. `Cc1cc(C)cc(Nc2cc(N[C@@H]3CCCC[C@@H]3N)ccc2C(N)=O)c1` [Example 4, 4-((1R,2S)-2-aminocyclohexylamino)-2-(3,5-dimethylphenylamino)benzamide]: the IC50 was in the range of 100 to 1000 nM. Regarding `NC(=O)c1ccc(N[C@@H]2CCCC[C@@H]2N)cc1Nc1cccc(-n2nccn2)c1` [Example 5], the IC50 lay in the range of 100 to 1000 nM. For the molecule `Cc1cc(Nc2cc(N[C@@H]3CCCC[C@@H]3N)ccc2C(N)=O)sn1` [Example 6, 4-((1R,2S)-2-aminocyclohexylamino)-2-(3-methylisothiazol-5-ylamino)benzamide], the IC50 lay in the range of 10 to 100 nM.

With `NC(=O)c1ccc(N[C@@H]2CCCC[C@@H]2N)cc1Nc1cc(-c2ccccc2)no1` [Example 7, 4-((1R,2S)-2-aminocyclohexylamino)-2-(3-phenylisoxazol-5-ylamino)benzamide], the IC50 lay within 10 to 100 nM. With `Cn1cc(Nc2cc(N[C@@H]3CCCC[C@@H]3N)ccc2C(N)=O)cn1` [Example 8, 4-((1R,2S)-2-aminocyclohexylamino)-2-(1-methyl-1H-pyrazol-4-ylamino)benzamide] the figure was > 1000 nM; with `Cc1cc(Nc2cc(N[C@H](CC(C)C)C(N)=O)ccc2C(N)=O)sn1` [Example 9, (R)-4-(1-amino-4-methyl-1-oxopentan-2-ylamino)-2-(3-methylisothiazol-5-ylamino)benzamide], 10 to 100 nM. With `Cc1cc(Nc2cc(N[C@H](C)C(N)=O)ccc2C(N)=O)sn1` [Example 10, (R)-4-(1-amino-1-oxopropan-2-ylamino)-2-(3-methylisothiazol-5-ylamino)benzamide] the figure was 100 to 1000 nM; with `Cc1cc(Nc2cc(N[C@@H](C(N)=O)C(C)C)ccc2C(N)=O)sn1` [Example 11, (R)-4-(1-amino-3-methyl-1-oxobutan-2-ylamino)-2-(3-methylisothiazol-5-ylamino)benzamide], 100 to 1000 nM; with `Cc1cc(Nc2cc(N[C@H](CC(C)C)C(N)=O)ccc2C(N)=O)no1` [Example 12, (R)-4-(1-amino-4-methyl-1-oxopentan-2-ylamino)-2-(5-methylisoxazol-3-ylamino)benzamide], 100 to 1000 nM. The result for `Cc1cc(Nc2cc(N[C@H](CC(C)C)C(N)=O)ccc2C(N)=O)on1` [Example 13, (R)-4-(1-amino-4-methyl-1-oxopentan-2-ylamino)-2-(3-methylisoxazol-5-ylamino)benzamide] reads 100 to 1000 nM; that for `Cc1cc(Nc2cc(N[C@H](Cc3ccccc3)C(N)=O)ccc2C(N)=O)sn1` [Example 14, (R)-4-(1-amino-1-oxo-3-phenylpropan-2-ylamino)-2-(3-methylisothiazol-5-ylamino)benzamide], 10 to 100 nM; that for `Cc1cc(Nc2cc(N[C@H](COCc3ccccc3)C(N)=O)ccc2C(N)=O)sn1` [Example 15, (R)-4-(1-amino-3-(benzyloxy)-1-oxopropan-2-ylamino)-2-(3-methylisothiazol-5-ylamino)benzamide], 100 to 1000 nM. Consider `Cc1cc(Nc2cc(N[C@H](CO)C(N)=O)ccc2C(N)=O)sn1` [Example 16, (R)-4-(1-amino-3-hydroxy-1-oxopropan-2-ylamino)-2-(3-methylisothiazol-5-ylamino)benzamide], for which the half-maximal inhibitory concentration (IC50) was in the range of 100 to 1000 nM. The result for `Cc1cc(Nc2cc(N[C@H](CC3CCCCC3)C(N)=O)ccc2C(N)=O)sn1` [Example 17, (R)-4-(1-amino-3-cyclohexyl-1-oxopropan-2-ylamino)-2-(3-methylisothiazol-5-ylamino)benzamide] reads 10 to 100 nM; that for `Cc1cc(Nc2cc(N[C@@H](C(N)=O)c3ccccc3)ccc2C(N)=O)sn1` [Example 18, (R)-4-(2-amino-2-oxo-1-phenylethylamino)-2-(3-methylisothiazol-5-ylamino)benzamide], 100 to 1000 nM; that for `Cc1cc(Nc2cc(N[C@H](CC(C)C)C(N)=O)cc(F)c2C(N)=O)sn1` [Example 19, (R)-4-(1-amino-4-methyl-1-oxopentan-2-ylamino)-2-fluoro-6-(3-methylisothiazol-5-ylamino)benzamide], > 1000 nM.

Turning to `Cc1cc(Nc2cc(N[C@H](CC(C)C)C(N)=O)c(F)cc2C(N)=O)sn1` [Example 20, (R)-4-(1-amino-4-methyl-1-oxopentan-2-ylamino)-5-fluoro-2-(3-methylisothiazol-5-ylamino)benzamide], the IC50 was 10 to 100 nM. The result for `Cc1cc(Nc2cc(N[C@@H]3CCCC[C@@H]3N)c(F)cc2C(N)=O)sn1` [Example 21, 4-((1R,2S)-2-aminocyclohexylamino)-5-fluoro-2-(3-methylisothiazol-5-ylamino)benzamide] reads 10 to 100 nM; that for `Cc1cc(Nc2cc(N[C@@H](C(N)=O)C3CCCCC3)ccc2C(N)=O)sn1` [Example 22, (R)-4-(2-amino-1-cyclohexyl-2-oxoethylamino)-2-(3-methylisothiazol-5-ylamino)benzamide], 10 to 100 nM. The result for `Cc1cc(Nc2c(C(N)=O)ccc(N[C@H](CC(C)C)C(N)=O)c2F)sn1` [Example 23, (R)-4-(1-amino-4-methyl-1-oxopentan-2-ylamino)-3-fluoro-2-(3-methylisothiazol-5-ylamino)benzamide] reads > 1000 nM. In the case of `Cc1cc(Nc2cc(N[C@H](Cc3ccccc3)C(N)=O)c(F)cc2C(N)=O)sn1` [Example 24, (R)-4-(1-amino-1-oxo-3-phenylpropan-2-ylamino)-5-fluoro-2-(3-methylisothiazol-5-ylamino)benzamide], the half-inhibitory concentration (IC50) was 1 to 10 nM. The result for `Cc1cc(Nc2cc(N[C@H](CC3CC3)C(N)=O)c(F)cc2C(N)=O)sn1` [Example 25, (R)-4-(1-amino-3-cyclopropyl-1-oxopropan-2-ylamino)-5-fluoro-2-(3-methylisothiazol-5-ylamino)benzamide] reads 10 to 100 nM; that for `CC[C@@H](Nc1cc(Nc2cc(C)ns2)c(C(N)=O)cc1F)C(N)=O` [Example 26, (R)-4-(1-amino-1-oxobutan-2-ylamino)-5-fluoro-2-(3-methylisothiazol-5-ylamino)benzamide], 10 to 100 nM.

On to `Cc1cc(Nc2cc(N[C@H](Cc3ccc(F)cc3)C(N)=O)c(F)cc2C(N)=O)sn1` [Example 27, (R)-4-(1-amino-3-(4-fluorophenyl)-1-oxopropan-2-ylamino)-5-fluoro-2-(3-methylisothiazol-5-ylamino)benzamide], for which the IC50 was 10 to 100 nM.

As to `Cc1cc(Nc2cc(N[C@H](Cc3ccc(O)cc3)C(N)=O)c(F)cc2C(N)=O)sn1` [Example 28, (R)-4-(1-amino-3-(4-hydroxyphenyl)-1-oxopropan-2-ylamino)-5-fluoro-2-(3-methylisothiazol-5-ylamino)benzamide], the IC50 lay within 100 to 1000 nM. Turning to `COC[C@H](N)CNc1ccc(C(N)=O)c(Nc2cc(C)ns2)c1` [Example 29, (R)-4-(2-amino-3-methoxypropylamino)-2-(3-methylisothiazol-5-ylamino)benzamide], the half-maximal inhibitory concentration (IC50) is 100 to 1000 nM.

What is called IC50 is the concentration that gives 50% inhibition.
